From PubChem BioAssay (NCI) come the findings set out here.

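48-hour exposure; five concentrations; linearly interpolated endpoints. TGI: concentration producing complete growth inhibition.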

Among the test systems are A498 renal; COLO 205 colon; DLD-1 colon; DMS 273 small cell lung; HOP-18 NSCLC; KM20L2 colon; M19-MEL melanoma; NCI-H522 lung; SF-295 CNS; SK-MEL-28 melanoma; SK-MEL-5 melanoma; SNB-78 CNS; U251 CNS; XF 498 CNS.
What all share (experiment): inhibition of tumour cell growth, NCI panel, 48 h

As to `CCOc1ccc(N=Cc2cc(OC)c(OC)c(OC)c2)cc1`, the TGI in the experiment with A498 renal, in the experiment on COLO 205 colon, with DLD-1 colon, in the experiment with DMS 273 small cell lung, in the experiment with HOP-18 NSCLC and in the experiment with KM20L2 colon was above 100 µM each time. The TGI in the experiment on M19-MEL melanoma, in the experiment with NCI-H522 lung, with SF-295 CNS, with SK-MEL-28 melanoma, in the experiment with SK-MEL-5 melanoma and in the experiment on SNB-78 CNS was above 100 µM in each case. The TGI in the experiment with U251 CNS and in the experiment with XF 498 CNS was above 100 µM in each case.

For `CC(C)(C)C1CCC2c3c([nH]c4ccccc34)C3C(=O)N(c4ccc(Br)cc4)C(=O)C3C2C1` (centres undefined), the TGI in the experiment on A498 renal was 52.3 µM; with COLO 205 colon, 23.3 µM; with DLD-1 colon it was above 100 µM; with DMS 273 small cell lung, 31.9 µM; in the experiment with HOP-18 NSCLC it was above 100 µM; in the experiment with KM20L2 colon, 42.2 µM. The TGI with M19-MEL melanoma was 33.2 µM; with SF-295 CNS, 63.1 µM; in the experiment with SK-MEL-28 melanoma, above 100 µM; with SK-MEL-5 melanoma, 62.2 µM; in the experiment with SNB-78 CNS it was above 100 µM; in the experiment on XF 498 CNS, 76.2 µM.

For the molecule `CCN(CC)CC(C)(C)C(=O)/C=C/c1ccc(C)cc1`, the TGI in the experiment on A498 renal amounted to 15.5 µM; in the experiment on DLD-1 colon, 32.4 µM; with HOP-18 NSCLC, 23.6 µM; in the experiment with KM20L2 colon, 13.3 µM; with M19-MEL melanoma, 79.6 µM; in the experiment with NCI-H522 lung, 8.93 µM. The TGI with SF-295 CNS amounted to 26.1 µM; in the experiment with SK-MEL-28 melanoma, 27.8 µM; in the experiment with SK-MEL-5 melanoma it was 29.1 µM; in the experiment with SNB-78 CNS it was 26.3 µM; with U251 CNS, 28.6 µM; with XF 498 CNS, 20.4 µM.

`Cc1[nH]n(-c2ccccc2)c(=S)c1C(=O)c1ccccc1`: the TGI in the experiment with A498 renal is 44.9 µM; in the experiment with COLO 205 colon it was above 100 µM; in the experiment on DLD-1 colon, 60.9 µM; with DMS 273 small cell lung it was above 100 µM; in the experiment on KM20L2 colon, above 100 µM; with NCI-H522 lung it was above 100 µM. Besides, the TGI with SF-295 CNS is above 100 µM; in the experiment on SK-MEL-28 melanoma, above 100 µM; in the experiment with SK-MEL-5 melanoma it was above 100 µM; in the experiment on SNB-78 CNS it was 64.8 µM; in the experiment on U251 CNS it was above 100 µM; in the experiment on XF 498 CNS it was above 100 µM.

As to `CCC(C)(C)NC1=C(NC(C)=O)C(=O)c2ccccc2C1=O`, the TGI in the experiment on COLO 205 colon is above 75 µM; in the experiment on DLD-1 colon, above 75 µM; with DMS 273 small cell lung it was above 75 µM; with KM20L2 colon, above 75 µM; with M19-MEL melanoma it was 23.7 µM; in the experiment with NCI-H522 lung, 28.7 µM. For the same molecule, the TGI is above 75 µM in the experiment with SF-295 CNS; above 75 µM with SK-MEL-28 melanoma; 26 µM with SK-MEL-5 melanoma; above 75 µM in the experiment with SNB-78 CNS; above 75 µM with U251 CNS; 40.2 µM in the experiment with XF 498 CNS.

Take `C[n+]1c2ccccc2c(NC(CCC(N)=O)C(=O)O)c2ccccc21` (centres undefined): the TGI in the experiment with A498 renal, with COLO 205 colon, in the experiment with DLD-1 colon, in the experiment on DMS 273 small cell lung, with HOP-18 NSCLC and with KM20L2 colon was above 100 µM throughout. Also, the TGI with M19-MEL melanoma, with NCI-H522 lung, in the experiment with SF-295 CNS, with SK-MEL-5 melanoma, in the experiment on SNB-78 CNS and with U251 CNS was above 100 µM throughout. The same molecule showed a TGI with XF 498 CNS above 100 µM.

For the molecule `Nc1nc(=O)n(C2OC(CO)C(O)C2O)cc1F` (centres undefined), the TGI in the experiment on A498 renal, with COLO 205 colon, with DLD-1 colon, in the experiment with DMS 273 small cell lung, in the experiment on HOP-18 NSCLC and with KM20L2 colon was above 100 µM throughout. The TGI in the experiment with M19-MEL melanoma, in the experiment on NCI-H522 lung, in the experiment on SF-295 CNS, in the experiment with SK-MEL-28 melanoma, in the experiment on SK-MEL-5 melanoma and with SNB-78 CNS was above 100 µM each time. Moreover, the TGI in the experiment with U251 CNS and in the experiment with XF 498 CNS was above 100 µM each time.

For the molecule `Cc1ccc2c(c1)NC(=O)C(N=[N+]=[N-])(c1ccccc1)C2=O` (centres undefined), the TGI in the experiment with A498 renal is above 100 µM; in the experiment on COLO 205 colon, 27.1 µM; with DLD-1 colon, above 100 µM; in the experiment with DMS 273 small cell lung, 28.6 µM; in the experiment with HOP-18 NSCLC, 88.3 µM; with KM20L2 colon it was 74.6 µM. Besides, the TGI in the experiment on M19-MEL melanoma is 40 µM; with NCI-H522 lung, 45.6 µM; in the experiment with SF-295 CNS, 78.1 µM; with SK-MEL-28 melanoma it was above 100 µM; in the experiment with SK-MEL-5 melanoma, 47.4 µM; in the experiment with SNB-78 CNS, 64.3 µM. The TGI was found to be 74.6 µM in the experiment with U251 CNS and 60.2 µM in the experiment on XF 498 CNS.

Take `Cc1c2n(c3ccccc13)CC1C2N(C)OC1(C)C` (centres undefined): the TGI in the experiment with COLO 205 colon, in the experiment on DLD-1 colon, in the experiment on DMS 273 small cell lung, with KM20L2 colon, in the experiment with M19-MEL melanoma and in the experiment on NCI-H522 lung was above 100 µM in each case. For the same molecule, the TGI in the experiment with SF-295 CNS, in the experiment with SK-MEL-28 melanoma, in the experiment on SK-MEL-5 melanoma, in the experiment on SNB-78 CNS and with XF 498 CNS was above 100 µM each time.
